A value given as a limit tells only on which side of the number the result lay.

One assay addresses OPRM1 (Homo sapiens, UniProt P35372). Nature of the assay: SAFETYScan GPCR cAMP, Agonist. Format: cell-based. The source says:
(§1) Supplement jm1c02175_si_002.xlsx, sheet "SAFETYScan" | column: RC50 (uM); Max Response

A further assay concerns the target T1, ADRB2 (Homo sapiens, UniProt P07550).
T1 construct: expressed in transfected cells
Nature of the assay: SAFETYScan GPCR cAMP, Agonist. Format: cell-based.
Source text: as §1

Another assay concerns the target T2, ADRB1 (Homo sapiens, UniProt P08588).
T2 construct: expressed in transfected cells
As to the kind of experiment: SAFETYScan GPCR cAMP, Agonist. Format: cell-based.
Source text: as §1

The target in a further assay is OPRK1 (Homo sapiens, UniProt P41145). Nature of the assay: SAFETYScan GPCR cAMP, Agonist. Format: cell-based.
Source text: as §1

The target of a further assay is T3, CNR1 (Homo sapiens, UniProt P21554).
T3 construct: expressed in transfected cells
As to the kind of experiment: SAFETYScan GPCR cAMP, Agonist. Format: cell-based.
Source text: as §1

For a further assay, the target named is T4, CNR2 (Homo sapiens, UniProt P34972).
T4 construct: expressed in transfected cells
Nature of the assay: SAFETYScan GPCR cAMP, Agonist. It is filed as cell-based.
Source text: as §1

The target in the next assay is T5, CHRM2 (Homo sapiens, UniProt P08172).
T5 construct: expressed in transfected cells
T5 sequence (P08172 1-466): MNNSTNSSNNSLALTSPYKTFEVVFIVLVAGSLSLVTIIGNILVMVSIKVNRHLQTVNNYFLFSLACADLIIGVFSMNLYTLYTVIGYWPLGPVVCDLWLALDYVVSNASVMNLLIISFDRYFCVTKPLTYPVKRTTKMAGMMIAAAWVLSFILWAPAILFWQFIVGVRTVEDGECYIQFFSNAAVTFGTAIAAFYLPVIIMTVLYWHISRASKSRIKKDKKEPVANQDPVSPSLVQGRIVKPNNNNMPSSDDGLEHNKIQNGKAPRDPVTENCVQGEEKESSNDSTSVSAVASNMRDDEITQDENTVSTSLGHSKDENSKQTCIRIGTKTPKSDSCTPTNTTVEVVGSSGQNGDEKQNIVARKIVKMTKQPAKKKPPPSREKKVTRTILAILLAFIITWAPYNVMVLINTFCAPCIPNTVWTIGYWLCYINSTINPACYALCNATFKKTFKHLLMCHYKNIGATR
As to the kind of experiment: SAFETYScan GPCR cAMP, Agonist. It is filed as cell-based.
Source text: as §1

The next assay has as its target T6, DRD2S (Homo sapiens, UniProt P14416).
T6 construct: expressed in transfected cells
As to the kind of experiment: SAFETYScan GPCR cAMP, Agonist. It is filed as cell-based.
Source text: as §1

The target in a further assay is T7, HTR1A (Homo sapiens, UniProt P08908).
T7 construct: expressed in transfected cells
T7 sequence (P08908 1-422): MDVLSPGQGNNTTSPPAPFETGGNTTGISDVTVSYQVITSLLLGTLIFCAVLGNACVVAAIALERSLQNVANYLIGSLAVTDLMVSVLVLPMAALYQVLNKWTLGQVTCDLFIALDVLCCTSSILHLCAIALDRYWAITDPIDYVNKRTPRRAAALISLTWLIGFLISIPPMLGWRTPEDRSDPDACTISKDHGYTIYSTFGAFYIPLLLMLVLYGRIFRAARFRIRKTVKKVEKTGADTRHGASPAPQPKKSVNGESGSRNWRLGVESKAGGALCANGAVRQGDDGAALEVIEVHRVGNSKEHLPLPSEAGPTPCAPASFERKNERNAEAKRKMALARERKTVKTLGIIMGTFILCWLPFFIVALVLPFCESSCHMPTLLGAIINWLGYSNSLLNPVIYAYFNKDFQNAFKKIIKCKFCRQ
As to the kind of experiment: SAFETYScan GPCR cAMP, Agonist. Format: cell-based.
Source text: as §1

For another assay, the target named is T8, DRD1 (Homo sapiens, UniProt P21728).
T8 construct: expressed in transfected cells
As to the kind of experiment: SAFETYScan GPCR cAMP, Agonist. It is filed as cell-based.
Source text: as §1

The next assay has as its target BCL6 in Karpas 422 cells (Homo sapiens, UniProt P41182). As to the kind of experiment: cell-based. The procedure:
3.2 Mesoscale Discovery (MSD) Degradation Assay
An MSD assay was developed for screening of compounds to determine the degradation of endogenous BCL6 in OCI-Ly1 cells. Briefly, test compounds in DMSO or DMSO alone to a total of 1332.5 nL/well were dispensed to a 96-well Nunc™ Edge 2 plate (ThermoFisher Scientific, 267544) using an Echo® 550 acoustic […]
supplemented with 10% heat-inactivated fetal bovine serum (Sera Plus, PAN Biotech, P30-3702) were […]
incubation at 37 °C + 5% CO2 the plate was centrifuged at 300 x g for 5 minutes. […]
plate washer for all wash and aspiration steps, media was removed and cells were rinsed with PBS, centrifuged as before and PBS removed. Cells were lysed in 50 µL ice-cold lysis buffer at pH 7.4 containing 50 mM Tris-HCl, 150 mM NaCl, 1 % Triton X-100 (v/v), 1 mM PMSF, 1 mM activated sodium vanadate, 1 mM EDTA, phosphatase inhibitors 2 and 3 (1:50 dilution) and protease inhibitor cocktail (1:100 dilution).
20 °C or continuing the assay. A 96-well MSD standard bind plate (MSD, L15XA-3) which was coated overnight with 1 µg/mL anti-human BCL6 goat antibody in PBS (R&D Systems, AF5046) was blocked in 3% BSA in TBS + 0.1% Tween-20 for 1 hour with shaking. Wells were emptied thoroughly before 40 µL/well of lysate was transferred from the cell plate. The MSD plate was incubated at RT for 1 hour with shaking then washed three times with TBS + 0.1 % Tween-20. Antibodies were prepared in TBS + 0.1% Tween-20 + 1% BSA. Anti-human BCL6 rabbit antibody (Cell Signalling Technology, 14895S) was added at 1:100 dilution at 25 µL/well. The plate was incubated and washed as before. MSD Sulfo-tag anti-rabbit detection antibody (MSD, R32AB-1) at 1:1000 dilution at 25 µL/well was added. The plate was incubated and washed as before and MSD Gold read buffer (MSD R92TG) at 1:1 dilution with water at 150 µL/well was added. The plate was read within 10 minutes on the MSD Quickplex reader. The % inhibition at each […]
3.3 Cell proliferation assay
Aldrich) supplemented with 10% FBS (Gibco). […]
transferred onto the cells.
Assay plates containing cells […]

T3 sequence (P21554 whole entry): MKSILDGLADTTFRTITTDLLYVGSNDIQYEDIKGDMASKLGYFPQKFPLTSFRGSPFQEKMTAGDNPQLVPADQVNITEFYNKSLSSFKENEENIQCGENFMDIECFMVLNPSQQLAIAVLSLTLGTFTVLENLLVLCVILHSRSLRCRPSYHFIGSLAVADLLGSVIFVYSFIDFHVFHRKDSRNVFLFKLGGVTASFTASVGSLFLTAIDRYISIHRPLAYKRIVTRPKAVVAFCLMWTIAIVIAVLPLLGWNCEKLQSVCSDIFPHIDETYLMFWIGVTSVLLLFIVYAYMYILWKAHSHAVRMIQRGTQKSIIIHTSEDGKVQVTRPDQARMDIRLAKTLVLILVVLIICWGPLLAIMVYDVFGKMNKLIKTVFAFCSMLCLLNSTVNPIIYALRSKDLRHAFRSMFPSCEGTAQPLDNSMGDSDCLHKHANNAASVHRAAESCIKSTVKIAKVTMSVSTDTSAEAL
T6 sequence (P14416 1-414 isoform P14416-2): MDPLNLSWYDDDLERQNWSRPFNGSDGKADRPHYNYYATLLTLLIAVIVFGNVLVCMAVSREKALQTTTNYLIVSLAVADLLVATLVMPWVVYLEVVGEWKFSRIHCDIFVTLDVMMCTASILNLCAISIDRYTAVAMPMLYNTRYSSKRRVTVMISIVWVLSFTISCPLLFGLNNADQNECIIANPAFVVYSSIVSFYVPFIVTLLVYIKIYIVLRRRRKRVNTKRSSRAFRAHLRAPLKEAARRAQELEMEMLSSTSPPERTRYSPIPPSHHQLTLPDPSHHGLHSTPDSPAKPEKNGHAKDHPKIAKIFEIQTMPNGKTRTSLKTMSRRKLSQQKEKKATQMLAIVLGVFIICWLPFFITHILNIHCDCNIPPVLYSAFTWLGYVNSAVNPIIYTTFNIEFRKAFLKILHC
T4 sequence (P34972 whole entry): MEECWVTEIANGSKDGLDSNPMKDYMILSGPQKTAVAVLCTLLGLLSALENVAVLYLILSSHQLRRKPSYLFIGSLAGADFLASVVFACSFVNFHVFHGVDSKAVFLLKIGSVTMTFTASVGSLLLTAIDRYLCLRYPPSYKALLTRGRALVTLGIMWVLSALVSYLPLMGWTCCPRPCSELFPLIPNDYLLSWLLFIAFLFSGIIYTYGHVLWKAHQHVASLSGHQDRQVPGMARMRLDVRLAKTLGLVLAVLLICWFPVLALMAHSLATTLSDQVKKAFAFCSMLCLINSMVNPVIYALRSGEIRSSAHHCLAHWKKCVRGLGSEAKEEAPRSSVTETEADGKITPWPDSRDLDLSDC
T2 sequence (P08588 whole entry): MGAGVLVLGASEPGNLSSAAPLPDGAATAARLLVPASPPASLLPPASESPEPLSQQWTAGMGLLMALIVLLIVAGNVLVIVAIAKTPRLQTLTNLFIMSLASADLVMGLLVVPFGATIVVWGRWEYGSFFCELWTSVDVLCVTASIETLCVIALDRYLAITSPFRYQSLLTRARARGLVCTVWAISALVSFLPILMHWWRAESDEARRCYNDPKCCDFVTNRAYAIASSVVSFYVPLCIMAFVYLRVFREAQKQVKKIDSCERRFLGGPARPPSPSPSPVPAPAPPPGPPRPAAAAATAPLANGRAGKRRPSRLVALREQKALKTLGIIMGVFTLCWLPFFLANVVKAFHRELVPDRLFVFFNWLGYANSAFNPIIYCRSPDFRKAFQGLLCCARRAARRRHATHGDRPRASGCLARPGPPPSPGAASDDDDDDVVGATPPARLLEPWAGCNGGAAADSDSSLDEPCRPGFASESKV
Sequence of OPRM1 (P35372 whole entry, species assumed): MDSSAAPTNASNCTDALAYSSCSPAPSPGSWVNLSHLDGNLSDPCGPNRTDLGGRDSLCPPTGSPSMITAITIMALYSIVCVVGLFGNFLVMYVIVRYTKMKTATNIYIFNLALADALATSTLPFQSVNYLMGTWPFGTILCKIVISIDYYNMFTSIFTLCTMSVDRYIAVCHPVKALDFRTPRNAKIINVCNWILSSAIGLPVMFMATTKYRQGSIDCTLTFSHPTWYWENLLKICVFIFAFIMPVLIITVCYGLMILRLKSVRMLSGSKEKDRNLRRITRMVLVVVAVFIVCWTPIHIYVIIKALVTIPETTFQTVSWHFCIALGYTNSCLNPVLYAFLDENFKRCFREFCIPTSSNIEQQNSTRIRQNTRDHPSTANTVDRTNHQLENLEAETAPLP
T1 sequence (P07550 whole entry): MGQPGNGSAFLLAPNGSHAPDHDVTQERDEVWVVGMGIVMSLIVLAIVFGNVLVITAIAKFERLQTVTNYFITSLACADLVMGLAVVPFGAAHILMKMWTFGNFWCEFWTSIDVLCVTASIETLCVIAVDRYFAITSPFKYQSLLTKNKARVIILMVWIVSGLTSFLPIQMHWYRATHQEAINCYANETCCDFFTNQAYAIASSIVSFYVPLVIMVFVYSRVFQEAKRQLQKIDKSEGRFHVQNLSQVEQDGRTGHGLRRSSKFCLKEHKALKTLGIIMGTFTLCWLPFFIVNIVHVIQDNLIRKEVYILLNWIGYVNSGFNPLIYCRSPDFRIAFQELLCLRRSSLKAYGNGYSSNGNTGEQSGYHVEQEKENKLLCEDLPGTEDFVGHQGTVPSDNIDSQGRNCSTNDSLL
T8 sequence (P21728 whole entry): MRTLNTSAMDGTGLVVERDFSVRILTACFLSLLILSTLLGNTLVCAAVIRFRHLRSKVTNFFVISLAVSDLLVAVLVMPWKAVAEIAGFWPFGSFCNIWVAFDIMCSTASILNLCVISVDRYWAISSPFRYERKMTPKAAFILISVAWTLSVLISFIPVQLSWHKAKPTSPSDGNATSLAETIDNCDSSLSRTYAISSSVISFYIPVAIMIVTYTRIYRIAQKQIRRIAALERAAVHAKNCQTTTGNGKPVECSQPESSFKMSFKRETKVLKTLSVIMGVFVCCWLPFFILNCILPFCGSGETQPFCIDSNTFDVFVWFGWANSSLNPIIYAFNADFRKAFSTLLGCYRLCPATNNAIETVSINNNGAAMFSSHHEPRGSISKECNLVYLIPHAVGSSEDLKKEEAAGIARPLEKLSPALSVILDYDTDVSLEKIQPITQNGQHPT
Sequence of OPRK1 (P41145 whole entry, species assumed): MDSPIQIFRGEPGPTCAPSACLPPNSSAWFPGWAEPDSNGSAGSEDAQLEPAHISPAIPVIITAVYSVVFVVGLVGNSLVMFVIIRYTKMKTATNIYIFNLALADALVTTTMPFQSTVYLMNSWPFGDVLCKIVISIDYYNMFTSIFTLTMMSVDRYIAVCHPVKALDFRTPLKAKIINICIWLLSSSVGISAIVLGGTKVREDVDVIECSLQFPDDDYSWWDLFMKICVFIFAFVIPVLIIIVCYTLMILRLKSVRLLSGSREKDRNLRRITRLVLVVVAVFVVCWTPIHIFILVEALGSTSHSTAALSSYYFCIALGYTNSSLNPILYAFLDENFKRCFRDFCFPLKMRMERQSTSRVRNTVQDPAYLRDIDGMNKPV

As to `C[C@H]1C[C@@H](O)CN(c2ncc(Cl)c(Nc3ccc4c(c3)c3c(c(=O)n4C)OCC(F)(F)[C@H](C4CC4)N3)n2)C1` [12a CCT373566, (S)-10-((5-Chloro-2-((3R,5S)-3-hydroxy-5-methylpiperidin-1-yl)pyrimidin-4-yl)amino)-2-cyclopropyl-3,3-difluoro-7-methyl-1,2,3,4-tetrahydro-[1,4]oxazepino[2,3-c]quinolin-6(7H)-one], the Emax was 28.9% at OPRM1 (read-out: Max Response); 0% on ADRB2 (read-out: Max Response); 0% at ADRB1 (read-out: Max Response); 37.1% on OPRK1 (read-out: Max Response); 18.9% on CNR1 (read-out: Max Response); 0% at CNR2 (read-out: Max Response). Besides, the Emax came to 15% on CHRM2 (read-out: Max Response), 1.64% at DRD2S (read-out: Max Response), 12.5% on HTR1A (read-out: Max Response) and 0% on DRD1 (read-out: Max Response). For the same compound, the half-maximal effective concentration (EC50) at OPRM1 (read-out: RC50 (EC50)), on ADRB2 (read-out: RC50 (EC50)), at ADRB1 (read-out: RC50 (EC50)), at OPRK1 (read-out: RC50 (EC50)), at CNR1 (read-out: RC50 (EC50)) and on CNR2 (read-out: RC50 (EC50)) was greater than 10 µM throughout. The 50% effective concentration (EC50) at CHRM2 (read-out: RC50 (EC50)), on DRD2S (read-out: RC50 (EC50)), on HTR1A (read-out: RC50 (EC50)) and on DRD1 (read-out: RC50 (EC50)) was greater than 10 µM in each case. In addition, the Dmax at BCL6 in Karpas 422 cells (KARPAS-422, read-out: MSD degrader assay [Karpas 422] Dmax) was found to be 85%. For the same compound, the DC50 on BCL6 in Karpas 422 cells (read-out: MSD degrader assay [Karpas 422] DC50, Karpas 422 cells) stood at 0.001 µM.

Values taken from publication PMC9234961 (Journal of Medicinal Chemistry, 2022).
